Laboratory results from US12564631B2, “Phytosphingosine derivatives as adjuvants in immune stimulation” (Helmholtz-Zentrum für Infektionsforschung GmbH, priority 2020, dated 2026).
Entries after “also recorded” stand apart in the source; their conditions may differ.

Experiments:
Ova-specific IgG = Ova-specific IgG titer (ELISA) in sera of mice immunized with Ovalbumin plus adjuvant; type: in vivo; settings: Ovalbumin 30 μg + adjuvant 15 μg, days 0, 14, 28, sera 14 days after last immunization
Protocol: FIG. 5: Immunization protocol—Administration (intramuscular route) of Ovalbumin with adjuvants. Ovalbumin (30 μg) was co-administered (intramuscular) without or with different adjuvants, such as IPB 2033-2044, c-di-AMP or aßGalCerMPEG (15 μg), on days 0, 14 and 28.
(§1) FIG. 7: Systemic humoral immune responses induced in mice. Shown is the IgG titer as a readout of systemic humoral immune responses induced in mice after three immunizations with Ovalbumin co-administered with different adjuvants via intramuscular route. Ova-specific IgG titers were measured via ELISA in sera 14 days after the last immunization.
FIG. 9: Immunization protocol—Administration (intranasal route) of Ovalbumin with adjuvants. Immunization protocol: Mucosal administration (intranasal (i.n.) route) of Ovalbumin (30 μg) co-administered without or with different adjuvants, such as IPB 2033-2044, c-di-AMP or aßGalCerMPEG (15 μg), on days 0, 14 and 28.
as §1, with “11:” for “7:”, “intranasal” for “intramuscular”, “titers” for “titers were measured via ELISA”
Groups of mice (3-5 animals) were immunized either intranasal (i.n.) or intramuscular (i.m.) on days 0, 14 and 281 with PBS, or with Ovalbumin (30 μg); the latter were administered alone or with different adjuvants—c-di-AMP, aßGalCerMPEG or IPB 2033 to 2044—made up to a maximal volume of 20 μl (i.n.) or 50 μl (i.m.) in PBS.
Blood samples were collected on days 1, 14, 28 and 42 via retro-bulbar bleeding. Spleens of vaccinated mice were aseptically removed. For the subsequent methods, cell suspensions of spleens (n=5) of each immunized groups were prepared and erythrocytes were lysed. These splenocyte pools of each group were cultured in the presence of different concentrations of Ovalbumin; controls received 5 μg/mL concanavalin A. The incorporation of [^3H] thymidine into the DNA of proliferating cells was determined using a scintillation counter (Wallac 1450, Micro-Trilux).
The Ova-specific antibodies were determined in serum samples by ELISA. Endpoint titers were expressed as reciprocal values of the last dilution, which gave an optical density at 405 nm of two times above the values of the negative controls. For calculation purposes, negative samples were assigned an arbitrary titer of the lowest dilution measured.
As described in the protocols above, groups of mice (3-5 animals) were immunized either intranasal (i.n.) or intramuscular (i.m.) on days 0, 14 and 281 with PBS, or with Ovalbumin (30 μg); the latter were administered alone or with different adjuvants—c-di-AMP, aßGalCerMPEG or IPB 2033 to 2044—is shown in FIG. 5-11, intramuscular.

CD4+ T cells = test: CFSE proliferation assay of CD4+ T cells after interaction with Ova/adjuvant-matured bone marrow derived DCs (APC); type: cell-based, mice; settings: for stimulating effect of CD4+ T cells versus controls with only antigen Ova: CFSE loss up to 7 days, DCs activated with Ova + 10 μg compound, FIG. 4A/4B
Text: FIG. 3B: Cell proliferation tracked by CFSE dilution of CD4+ T cells after interaction with matured Antigen Presenting Cells (APC). With every cell division, the CFSE signal strength is approximately halved. The shown cell numbers indicate the ratio of proliferated live CD4+ T cells.
(§2) FIG. 4: Effect after treatment with IPB 0964-1917—Cell proliferation tracked by CFSE loss of T cells after interaction with matured Antigen Presenting Cells (APC). With every cell division, the CFSE signal strength is reduced. The shown cell numbers indicate the ratio of proliferating T and B cells (7 steps are shown). (A) Numbers of CD4+ T cells are shown at different proliferation steps up to 7 days measuring the loss of CFSE. Naïve cells were treated with one of IPB1901-1912 together with DCs activated with Ova prior to the CFSE assay. (B) Numbers of CD4+ T cells are shown at different proliferation steps up to 7 days measuring the loss of CFSE. Naïve cells were treated with one of IPB2033-2044 together with DCs activated with Ova prior to the CFSE assay. (C) Numbers of CD8+ T cells are shown at different proliferation steps up to 7 days measuring the loss of CFSE. Naïve cells were treated with one of IPB1901-1912 together with DCs activated with Ova prior to the CFSE assay. (D) Numbers of CD8+ T cells are shown at different proliferation steps up to 7 days measuring the loss of CFSE. Naïve cells were treated with one of IPB2033-2044 together with DCs activated with Ova prior to the CFSE assay.
(§3) In order to assess the properties of the inventive compounds in antigen-specific T and B cell stimulation, the compounds were administered to cultured bone marrow cells in a CFSE assay.
(§4) Briefly, femurs and Tibiae of female 4-12 weeks old C57Bl6 (or BALB/c for TCR HA) were removed and purified from the surrounding muscle tissue (Kleenex tissues). Intact Bones were left in 70% ethanol for 2-5 min for disinfection. Both ends were cut with scissors and the bone marrow were flushed with PBS using a syringe with a 0.45 mm diameter needle, clusters were disintegrated by vigorous pipetting.
(§5) In order to obtain activated antigen presenting dendritic cells (DCs), bone marrow cells were cultured with GM-CSF. On Day 0, cells were seeded in a concentration of 2×10^6 cells per 100 mm dish (bacteriological petri dishes) in 10 ml RPMI-10 (100 U Pen/100 μg Strept/2 mM Glutamin/50 μm ß-Mercaptoethanol/10% FCS heat-inactivated and filtered 0.22 μm Filter) containing 200 Units GM-CSF. On Day 3 another 10 ml RPMI-10 containing 200 U GM-CSF were added to the plates. On Day 6 half of the culture supernatants (10 ml) were collected, centrifuged and the cell pellet resuspended in 10 ml fresh RPMI-10/200 U GM-CSF and given back into the original plates.
(§6) Subsequently, the DCs were incubated with Ovalbumin (as antigen) alone or co-administered with known adjuvants, such as α-GalCerMPEG, aßGalCerMPEG or TLR2/6 ligand (BPPcysMPEG), or the novel phytosphingosine derivatives of the present invention. The activation of DCs was controlled by FACS analysis of different CD markers, such as CD40, CD54, CD80, CD86, CD83, MHCI and MHCII.
(§7) The effect of the compounds of the present invention was then ascertained via co-incubation of naïve T or B cells, obtained from mice (OTI or OTII mice) with previous exposure to the Ova antigen, with DCs that had been treated with the compounds of the invention.
(§8) Naïve T cells were derived from LN/spleen from OTI or OTII mice. The MagniSort™ Mouse CD4 naïve or CD8 naïve T cell Enrichment Kit is designed for the magnetic separation of CD4 or CD8 naïve T cells by negative selection from mouse spleens or lymph nodes utilizing a biotinylated antibody cocktail and streptavidin-coated magnetic beads. Undesired cells are bound by antibody (Anti-Mouse CD8 or CD4/CD11b CD19/CD24/CD44/CD45R(B220)/CD49b(Integrin α 2)/Ly-6G (Gr-1)/γδ TCR/TER-119) and then magnetic beads that, when placed in a magnetic field, leave CD4 or CD8 naïve T cells untouched and free in solution. […]

CD8+ T cells = test: CFSE proliferation assay of CD8+ T cells after interaction with Ova/adjuvant-matured bone marrow derived DCs (APC); type: cell-based, mice
Text: FIG. 3C: Cell proliferation tracked by CFSE dilution of CD8+ T cells after interaction with matured Antigen Presenting Cells (APC). With every cell division, the CFSE signal strength is approximately halved. The shown cell numbers indicate the ratio of proliferated live CD8+ T cells
as §2, §3, §4, §5, §6, §7, §8

Compound | stimulation of antigen specific IgG production compared to control aßGalCerMPEG+ova (Ova-specific IgG; intramuscular (i.m.), FIG. 7) | stimulation of antigen specific IgG production compared to control aßGalCerMPEG+ova (Ova-specific IgG; intranasal (i.n.), FIG. 11) | capacity to induce antigen specific CD4+ T cell proliferation (CD4+ T cells; DCs restimulated with Ovalbumin + 10 μg compound for 24 h, interaction with APC for 5 days, FIG. 3B) | effect to induce antigen specific CD8+ T cell proliferation (CD8+ T cells; DCs restimulated with Ovalbumin + 10 μg compound for 24 h, interaction with APC for 5 days, FIG. 3C) | stimulating effect of CD4+ T cells versus controls with only antigen Ova (CD4+ T cells) | stimulating effect of CD8+ T cells versus controls with only antigen Ova (CD8+ T cells; CFSE loss up to 7 days, DCs activated with Ova + 10 μg compound, FIG. 4C/4D)
CCCCCCCCCCCCCCCCCCCCCCCCCC(=O)N(CC(=O)NCc1ccccc1)[C@@H](CO[C@H]1OC(CO)[C@H](O)C(O)C1O)[C@H](O)[C@H](O)CCCCCCCCCCCCCC (stereo partly drawn) [IPB 2042] | improved stimulation | improved stimulation | – | – | – | –
CCCCCCCCCCCCCCCCCCCCCCCC(=O)N(CC(=O)NCCC(=O)O)[C@@H](CO[C@H]1OC(CO)[C@H](O)C(O)C1O)[C@H](O)[C@H](O)CCCCCCCCCCCCCC (stereo partly drawn) [IPB 0964] | – | – | high capacity | strong effect; also recorded: beneficial effect | – | –
CCCCCCCCCCCCCCCCCCCCCCCCCC(=O)N(CC(=O)NCCOCCOCCOCCOC)[C@@H](CO[C@H]1OC(CO)[C@H](O)[C@H](O)C1O)[C@H](O)[C@H](O)CCCCCCCCCCCCCC (stereo partly drawn) [IPB 2034] | improved stimulation | at least equivalent | – | – | – | –
CCCCCCCCCCCCCCCCCCCCCCCCCC(=O)N(CC(=O)NCCCCCCN)[C@@H](CO[C@H]1OC(CO)[C@H](O)C(O)C1O)[C@H](O)[C@H](O)CCCCCCCCCCCCCC (stereo partly drawn) [IPB 2035] | improved stimulation | at least equivalent | – | – | – | –
CCCCCCCCCCCCCCCCCCCCCCCCCC(=O)N(CC(=O)NCC(OC)OC)[C@@H](CO[C@H]1OC(CO)[C@H](O)C(O)C1O)[C@H](O)[C@H](O)CCCCCCCCCCCCCC (stereo partly drawn) [IPB 2038] | at least equivalent | improved stimulation | – | – | stimulating effect of CD4+ T cells beyond controls | –
CCCCCCCCCCCCCCCCCCCCCCCC(=O)N(CC(=O)NCCCCCCCCCCCCCCCCCC)[C@@H](CO[C@H]1OC(CO)[C@H](O)C(O)C1O)[C@H](O)[C@H](O)CCCCCCCCCCCCCC (stereo partly drawn) [IPB 2040] | improved stimulation | improved stimulation | – | – | – | –
CCCCCCCCCCCCCCCCCCCCCCCCCC(=O)N(CC(=O)NCCCCCCCCCCCCCCCCCC)[C@@H](CO[C@H]1OC(CO)[C@H](O)C(O)C1O)[C@H](O)[C@H](O)CCCCCCCCCCCCCC (stereo partly drawn) [IPB 2033] | improved stimulation | improved stimulation | – | – | – | –
CCCCCCCCCCCCCCCCCCCCCCCCCC(=O)N(CC(=O)NCCN1C(=O)c2cccc3c(N(C)C)ccc(c23)C1=O)[C@@H](CO[C@H]1OC(CO)[C@H](O)C(O)C1O)[C@H](O)[C@H](O)CCCCCCCCCCCCCC (stereo partly drawn) [IPB 2041] | at least equivalent | improved stimulation | – | – | – | –
CCCCCCCCCCCCCCCCCCCCCCCCCC(=O)N(CC(=O)NCCC(=O)OC(C)(C)C)[C@@H](CO[C@H]1OC(CO)[C@H](O)C(O)C1O)[C@H](O)[C@H](O)CCCCCCCCCCCCCC (stereo partly drawn) [IPB 2043] | improved stimulation | improved stimulation | – | – | – | –
CCCCCCCCCCCCCCCCCCCCCCCCCC(=O)N(CC(=O)NCCOCCOCCOCCOCCOC)[C@@H](CO[C@H]1OC(CO)[C@H](O)[C@H](O)C1O)[C@H](O)[C@H](O)CCCCCCCCCCCCCC (stereo partly drawn) [IPB 2044] | at least equivalent | at least equivalent | – | – | – | –
CCCCCCCCCCCCCCCCCCCCCCCCCC(=O)N(CC(=O)NC1CCCCC1)[C@@H](CO[C@H]1OC(CO)[C@H](O)C(O)C1O)[C@H](O)[C@H](O)CCCCCCCCCCCCCC (stereo partly drawn) [IPB 2039] | improved stimulation | improved stimulation | – | – | stimulating effect of CD4+ T cells beyond controls | stimulating effect of CD8+ T cells beyond controls
CCCCCCCCCCCCCCCCCCCCCCCCCC(=O)N(CC(=O)NCCCc1ccccc1)[C@@H](CO[C@H]1OC(CO)[C@H](O)C(O)C1O)[C@H](O)[C@H](O)CCCCCCCCCCCCCC (stereo partly drawn) [IPB 2037] | improved stimulation | at least equivalent | – | – | – | –
